These are literature values, as cited in patent publication US9119409B2, “Water soluble nutritional supplement for ruminants” (priority 2013, dated 2015).

Read-outs that look alike come from different tables or passages of the source.

With `O=C([O-])[O-].[Ca+2]` [calcium carbonate], the bioavailability entry (at a pH greater than 4) was “less than 1%” and the bioavailability result (at a pH of 1.5) was “around 75%”.
